# Data published in patent US10105411B2, “Compositions and methods for modulating AT2R activity” (Novopyxis, Inc., priority 2014, dated 2018).
# “Also recorded” adds a separate entry of the source. Where no end group is shown, it is not given here.
# Experiments:
# [1] = tested on: mouse HL-1 cardiomyocytes; assay: Cell index (CI) cell survival, Xcelligence Real-Time Cell Analyzer, HL-1 cells; format: cell-based; conditions: for increase in cell index (CI): serum starved HL-1 cells
# Method: (§1) Thus, an NP-6AK agonist comprising the sequence Lys-Pro-Leu-Lys-Pro-Trp (SEQ ID NO. 2) promoted cell survival across mouse HL-1 cardiomyocytes and human smooth vascular muscle cells by acting through AT2R activation. Cell survival was assessed by measurement of cell index (CI) using a Xcelligence™ Real-Time Cell Analyzer (Westburg B V, Leusden, N L) to quantitatively determine the effect of different treatments on cell survival, adhesion, and proliferation. […] CGP42112A and the NP-6AK agonist (300 nM) increased CI of serum starved HL-1 cells in the order CGP42112A (≥14%), NP-6AK (≥25%). Increase in CI is a direct effect of AT2R activation. This was verified by addition of an AT2R antagonist, PD123319 (Sigma-Aldrich, Co. LLC, St. Louis, Mo.). In the presence of this antagonist, the cell survival otherwise observed using the NP-6AK agonist was not present.
# MCL-1 [2] = assay: MCL-1 expression in HL-1 cardiomyocytes; format: cell-based, mouse; conditions: for effect of AT2R antagonist on NP-6AK-mediated MCL-1 upregulation: antagonist with NP-6AK agonist; for MCL-1 expression (in words): female mouse HL-1 cardiomyocytes, FIG. 1A
# From the text: (§2) Cells treated with the NP-6AK agonist generated higher MCL-1 upregulation relative to those treated with a partial agonist such as CGP42112A.
# MCL-1 [3] = assay: MCL-1 expression in human vascular smooth muscle cells (CAVSMCs); format: cell-based; conditions: for effect of AT2R antagonist on NP-6AK-mediated MCL-1 upregulation: antagonist with NP-6AK agonist; for MCL-1 expression (in words): human CAVSMCs, FIG. 1B
# From the text: as §2
# PC-12 cells = assay: Survival/viability of serum-starved PC-12 cells (MTS cell proliferation assay); format: cell-based
# Method: (§3) Serum-starvation reduced survival of SH-SY5Y cells and PC-12 cells. […] Treatment of this cell line with 300 nM of NP-6AK agonist led to increased cell viability by over 30% relative to treatment with native ligand of AT2R Ang II (300 nM). […] AT2R activation by NP-6AK agonist promotes cell survival whereas AT2R activation by other ligands are harmful to it.
# [4] = tested on: human smooth vascular muscle cells; assay: Cell index (CI) cell survival, Xcelligence Real-Time Cell Analyzer, human smooth vascular muscle cells; format: cell-based
# Method: as §1
# MCL-1 [5] = assay: MCL-1 expression in SH-SY5Y cells (immunofluorescence staining); format: cell-based
# From the text: The SH-SY5Y cell line is a neuronal cell line with both dopaminergic and adrenergic receptors.
# SH-SY5Y cells [6] = assay: Neurite elongation in SH-SY5Y cells; format: cell-based; conditions: FIG. 3A
# SH-SY5Y cells [7] = assay: Survival of serum-starved SH-SY5Y cells (MTS cell proliferation assay); format: cell-based; conditions: serum starvation
# Method: as §3
# [8] = tested on: primary murine embryonic cortical neurons; assay: Neuroprotection of primary cortical neurons under nutrient deprivation; format: cell-based; conditions: 300 nm agonist; glucose-free Locke's medium; 14 DIV; p<0.05
# Method: For nutrient deprivation, primary cortical neurons (14 DIV) were incubated in glucose-free Locke's medium with or without […] NP-6AK agonist.
# Ex vivo neurons were obtained and treated with an NP-6AK agonist in different conditions to assess neuroprotective properties. Normal primary murine embryonic cortical neurons in culture (14 days in vitro) were challenged with nutrient deprivation by incubation in glucose-free Locke's medium (Schnapf et al. (1990)). These cultures were then supplemented with 300 nM NP-6AK agonist or no NP-6AK agonist.
# Zucker Obese (ZO) rats = assay: Zucker Obese rat diabetic/cardiovascular model, 2 weeks subcutaneous treatment; format: in vivo
# Method: Zucker Obese (ZO) rats (Charles River Laboratories, Inc., Wilmington, Mass.), a diabetic animal model displaying signs of cardiovascular disease were treated for 2 weeks (dose of 0.9 mg/kg/day) via subcutaneous injection with an NP-6AK agonist and assessed for several markers of cardiovascular health including blood markers and structural parameters of the heart. Controls were ZO rats that received saline.
# [9] = 0.9 mg/kg/day s.c., vs saline ZO rats
molecule,measurement,setting,value
Cc1cc(Cn2cnc3c2C[C@@H](C(=O)O)N(C(=O)C(c2ccccc2)c2ccccc2)C3)ccc1N(C)C [PD123319],"cell survival otherwise observed using the NP-6AK agonist, in presence of the AT2R antagonist",[1]; antagonist added to NP-6AK agonist treatment,not present
same,effect of AT2R antagonist on NP-6AK-mediated MCL-1 upregulation,MCL-1 [2],MCL-1 upregulation was not observed
same,effect of AT2R antagonist on NP-6AK-mediated MCL-1 upregulation,MCL-1 [2]; listed as PD,prevents NP-6AK-mediated up regulation of MCL-1
same,effect of AT2R antagonist on NP-6AK-mediated MCL-1 upregulation,MCL-1 [3],MCL-1 upregulation was not observed
same,effect of AT2R antagonist on NP-6AK-mediated MCL-1 upregulation,MCL-1 [3]; listed as PD,prevents NP-6AK-mediated up regulation of MCL-1
same,protective effects of the NP-6AK agonist when treated with AT2R antagonist,PC-12 cells; PC-12 cells,the protective effects of the NP-6AK agonist were lost
AngII: native ligand of AT2R,cell survival relative to cells treated with AT2R antagonist PD123319,PC-12 cells; MTS assay,more detrimental
CGP42112A,increase in cell index (CI),[1]; 300 nM,≥ 14%
same,MCL-1 expression (in words),MCL-1 [2],unable to increase MCL-1
same,MCL-1 expression (in words),MCL-1 [3],unable to increase MCL-1
same,cell survival relative to cells treated with AT2R antagonist PD123319,PC-12 cells; MTS assay,more detrimental
"KPLKPW [NP-6AK agonist, AT2R agonist hexapeptide of the NP-6AK class]",survival and proliferation compared with CGP42112A (300 nM),"[1]; 300 nM, cell index",significantly better survival and more proliferation
same,increase in cell index (CI),[1]; 300 nM,≥ 25%
same,survival and proliferation compared with CGP42112A (300 nM),[4],significantly better survival and more proliferation
same,higher MCL-1 expression,"MCL-1 [2]; 300 nM, cardiomyocytes, FIG. 1",45%
same,MCL-1 expression (in words),MCL-1 [2],increases MCL-1 expression
same,higher MCL-1 expression,"MCL-1 [3]; 300 nM, human smooth vascular muscle cells, FIG. 1",22%
same,MCL-1 expression (in words),MCL-1 [3],increases MCL-1 expression
same,increase in MCL-1 expression,"MCL-1 [5]; 300 nM, agonist alone, 24 hours, FIG. 2",2 fold
same,MCL-1 expression after treatment with Rapamycin,"MCL-1 [5]; agonist added after Rapamycin, FIG. 3B",reverses rapamycin-mediated suppression of MCL-1 expression; also recorded: able to recover MCL-1 expression
same,neurite elongation,SH-SY5Y cells [6],promotes neurite elongation
same,survival rate,SH-SY5Y cells [7],higher survival rate
same,increased survival relative to treatment with 300 nM CGP42112A,PC-12 cells; MTS assay,over 70%
same,survival rate,PC-12 cells; serum starvation,higher survival rate
same,increased activity compared with negative controls,[8],60%
same,increased HDL on average,Zucker Obese (ZO) rats; [9],12%
same,reduced triglycerides (fasting plasma),Zucker Obese (ZO) rats; [9],~50%
same,reduced urine N-acetyl-beta-A-glucosaminidase,Zucker Obese (ZO) rats; [9],~60%
same,reduced urine protein,Zucker Obese (ZO) rats; [9],~68%
same,Echocardiography/Strain analysis E/E,"Zucker Obese (ZO) rats; male ZO rat, 0.9 mg/kg/day",26 ± 2.1
same,Echocardiography/Strain analysis MPI,"Zucker Obese (ZO) rats; male ZO rat, 0.9 mg/kg/day",0.389 ± 0.02
same,Plasma Profile HDL,"Zucker Obese (ZO) rats; male ZO rat, 0.9 mg/kg/day",73 ± 2.8 mg/dL
same,Plasma Profile Triglycerides,"Zucker Obese (ZO) rats; male ZO rat, 0.9 mg/kg/day",610 ± 109 mg/dL
same,Urine Profile NA6,"Zucker Obese (ZO) rats; male ZO rat, 0.9 mg/kg/day",10.9 ± 1.5 mg/dL
same,Urine Profile Protein,"Zucker Obese (ZO) rats; male ZO rat, 0.9 mg/kg/day",445 ± 86.4 mg/dL
same,Echocardiography/Strain analysis Circumferential Strain,"Zucker Obese (ZO) rats; male ZO rat, 0.9 mg/kg/day, endocardium, short axis view",−26.11 ± 2.47
